Experiments:
[1] = system: Rattus norvegicus; experiment: Effect on helpless behavior in rats and the number of escape failures was determined in shuttle-box session-3 (SB-3) at 10 mg/kg dose; type: functional
[2] = system: Rattus norvegicus; experiment: Effect on helpless behavior in rats and the number of escape failures was determined in shuttle-box session-1 (SB-1) at 10 mg/kg dose; type: functional
[3] = system: Rattus norvegicus; experiment: Effect on helpless behavior in rats and the number of escape failures was determined in shuttle-box session-2 (SB-2) at 10 mg/kg dose; type: functional
[4] = biological target: T1, 5-hydroxytryptamine receptor 1A (Homo sapiens) (UniProt P08908); experiment: Percent increase in the Forskolin-Stimulated cAMP formation, in HeLa cells transfected with the 5-HT 1A receptor at 10 uM concentration; type: functional, cell-based
T1 sequence (whole entry): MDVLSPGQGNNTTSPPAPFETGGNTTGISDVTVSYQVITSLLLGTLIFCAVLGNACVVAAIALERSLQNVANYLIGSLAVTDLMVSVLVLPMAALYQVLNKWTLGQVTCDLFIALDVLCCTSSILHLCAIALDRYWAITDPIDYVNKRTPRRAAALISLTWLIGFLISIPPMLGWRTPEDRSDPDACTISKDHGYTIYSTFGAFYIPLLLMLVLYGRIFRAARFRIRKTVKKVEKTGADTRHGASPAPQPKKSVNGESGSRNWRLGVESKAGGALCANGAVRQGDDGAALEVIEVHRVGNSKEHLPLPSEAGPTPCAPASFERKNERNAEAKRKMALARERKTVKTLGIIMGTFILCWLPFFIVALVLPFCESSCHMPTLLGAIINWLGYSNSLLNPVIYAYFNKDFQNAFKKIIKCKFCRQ

[5] = biological target: T1, 5-hydroxytryptamine receptor 1A (Homo sapiens); experiment: Effect on Forskolin-Stimulated cAMP formation, in HeLa cells transfected with the 5-HT 1A receptor at 10 uM concentration; type: functional, cell-based
[6] = system: Mus musculus; experiment: Time-dependent effect on 8-OH-DPAT-induced hypothermia (change in body temperature) after 30 min, in mice at 5 mg/kg dose; type: functional
[7] = system: Mus musculus; experiment: Antidepressant-like activity in the forced swimming test (FST) in mice at 0.1 mg/kg dose; Antidepressant like activity; type: functional
[8] = system: Mus musculus; experiment: Effect on immobility time in the forced swimming test (FST) in mice at mg/kg dose; type: functional
[9] = system: Mus musculus; experiment: Effect on immobility time in the forced swimming test (FST) in mice at 10 mg/kg dose; type: functional
[10] = biological target: T2, 5-hydroxytryptamine receptor 1A (Rattus norvegicus, UniProt P19327); experiment: Binding affinity to 5-hydroxytryptamine 1A receptor (5-HT 1A receptor, serotonin receptor) from rat cortex using [3H]8-OH-DPAT as radioligand
T2 sequence (P19327 whole entry): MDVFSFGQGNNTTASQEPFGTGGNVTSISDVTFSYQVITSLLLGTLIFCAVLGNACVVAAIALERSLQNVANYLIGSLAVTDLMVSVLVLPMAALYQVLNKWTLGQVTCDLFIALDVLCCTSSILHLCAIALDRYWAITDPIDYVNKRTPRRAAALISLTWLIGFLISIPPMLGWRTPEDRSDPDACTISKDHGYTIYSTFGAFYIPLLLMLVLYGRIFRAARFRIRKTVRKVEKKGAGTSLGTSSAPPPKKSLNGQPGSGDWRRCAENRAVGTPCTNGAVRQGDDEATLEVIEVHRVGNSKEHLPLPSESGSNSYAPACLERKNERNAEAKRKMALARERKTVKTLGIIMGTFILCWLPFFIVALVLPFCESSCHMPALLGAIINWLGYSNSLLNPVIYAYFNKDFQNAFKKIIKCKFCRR

[11] = system: Mus musculus; experiment: Time-dependent effect on 8-OH-DPAT-induced hypothermia (change in body temperature) after 15 min, in mice at 0.5 mg/kg dose; type: functional
[12] = system: Mus musculus; experiment: Antidepressant-like activity in the forced swimming test (FST) in mice at 10 mg/kg dose; Antidepressant like activity; type: functional
[13] = system: Mus musculus; experiment: Time-dependent effect on 8-OH-DPAT-induced hypothermia (change in body temperature) after 60 min, in mice at 5 mg/kg dose; type: functional
[14] = system: Mus musculus; experiment: Time-dependent effect on 8-OH-DPAT-induced hypothermia (change in body temperature) after 15 min, in mice at 5 mg/kg dose; type: functional
[15] = system: Mus musculus; experiment: Effect on immobility time in the forced swimming test (FST) in mice at 0 mg/kg dose; type: functional
[16] = system: Mus musculus; experiment: Time-dependent effect on 8-OH-DPAT-induced hypothermia (change in body temperature) after 30 min, in mice at 0.5 mg/kg dose; type: functional
[17] = system: Mus musculus; experiment: Antidepressant-like activity in the forced swimming test (FST) in mice at 1 mg/kg dose; Antidepressant like activity; type: functional
[18] = system: Mus musculus; experiment: Effect on immobility time in the forced swimming test (FST) in mice at 0.1 mg/kg dose; type: functional
[19] = biological target: Sodium-dependent serotonin transporter (Rattus norvegicus, UniProt P31652); experiment: Binding affinity towards Serotonin transporter from rat cortex measured using [3H]paroxetine
Chain of Sodium-dependent serotonin transporter (P31652 whole entry): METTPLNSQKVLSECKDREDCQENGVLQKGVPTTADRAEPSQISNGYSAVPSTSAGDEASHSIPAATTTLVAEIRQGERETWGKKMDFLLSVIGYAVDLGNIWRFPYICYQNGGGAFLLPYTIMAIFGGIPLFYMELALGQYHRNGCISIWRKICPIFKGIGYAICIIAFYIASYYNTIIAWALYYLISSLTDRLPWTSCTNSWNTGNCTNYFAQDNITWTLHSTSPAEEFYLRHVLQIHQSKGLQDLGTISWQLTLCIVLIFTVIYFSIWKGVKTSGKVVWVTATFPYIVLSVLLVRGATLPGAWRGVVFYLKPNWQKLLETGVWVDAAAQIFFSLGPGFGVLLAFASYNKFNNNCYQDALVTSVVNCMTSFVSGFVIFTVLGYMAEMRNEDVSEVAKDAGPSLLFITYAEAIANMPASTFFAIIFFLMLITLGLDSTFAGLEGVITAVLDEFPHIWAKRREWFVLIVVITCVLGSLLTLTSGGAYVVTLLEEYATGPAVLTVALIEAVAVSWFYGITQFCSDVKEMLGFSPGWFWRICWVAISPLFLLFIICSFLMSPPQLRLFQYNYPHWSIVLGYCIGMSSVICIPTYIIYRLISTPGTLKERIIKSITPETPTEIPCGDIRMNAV

[20] = system: Mus musculus; experiment: Time-dependent effect on 8-OH-DPAT-induced hypothermia (change in body temperature) after 60 min, in mice at 0.5 mg/kg dose; type: functional
[21] = system: Mus musculus; experiment: Effect on immobility time in the forced swimming test (FST) in mice at 1 mg/kg dose; type: functional
[22] = system: Mus musculus; experiment: Antidepressant-like activity in the forced swimming test (FST) in mice at 10 mg/kg dose; type: functional
[23] = system: Mus musculus; experiment: Antidepressant-like activity in the forced swimming test (FST) in mice at 1 mg/kg dose; type: functional
[24] = system: Mus musculus; experiment: Antidepressant-like activity in the forced swimming test (FST) in mice at 0.1 mg/kg dose; type: functional

| SMILES | Ki ([10]; read-out: Ki) [nM] | Ki ([19]; read-out: Ki) [nM] | Ki [10] [nM] | Temperature change [6] [°C] | Activity [7] [%] | Immobility time [9] [s] | Temperature change [11] [°C] | Activity [12] [%] | Temperature change [13] [°C] | Temperature change [14] [°C] | Immobility time [15] [s] | Temperature change [16] [°C] | Activity [17] [%] | Immobility time [18] [s] | Temperature change [20] [°C] | Immobility time [21] [s] | Activity [22] [%] | Activity [23] [%] | also measured |
| --- | --- | --- | --- | --- | --- | --- | --- | --- | --- | --- | --- | --- | --- | --- | --- | --- | --- | --- | --- |
| CN(C)CCC=C1c2ccccc2CCc2ccccc21 [AMITRIPTYLINE] | – | – | – | – | – | – | – | – | – | – | – | – | – | – | – | – | – | – | No. of escape failures [1]: <1.2; No. of escape failures [2]: <9; No. of escape failures [3]: <3.3 |
| C=C[C@@]1(C)CC(=O)[C@]2(O)[C@@]3(C)[C@@H](O)CCC(C)(C)[C@@H]3[C@H](O)[C@H](OC(C)=O)[C@@]2(C)O1 | – | – | – | – | – | – | – | – | – | – | – | – | – | – | – | – | – | – | Activity [4]: 100%; cAMP [5]: 29.7 pmol/well |
| COc1ccccc1N1CCN(CCC(O)c2cc(C)sc2C)CC1 (stereo unspecified) | – | 115 | 12 | -1.86 | – | 103 | -2.53 | – | -1.26 | -2.01 | 124.3 | -2.13 | – | – | -1.21 | 111 | 20 | 13 | – |
| Oc1ccccc1N1CCN(CCC(O)c2ccc3ccccc3c2)CC1 (stereo unspecified) | – | – | 190 | -2.41 | 0 | 24.4 | -2.52 | 93 | -0.93 | -1.97 | – | -2.03 | 0 | – | -1.12 | 178.3 | – | – | Ki [19]: 190 nM |

Second part, led by results:

| Ki ([10]; read-out: Ki) [nM] | Ki ([19]; read-out: Ki) [nM] | Ki [10] [nM] | SMILES | Temperature change [6] [°C] | Activity [7] [%] | Immobility time [9] [s] | Temperature change [11] [°C] | Activity [12] [%] | Temperature change [13] [°C] | Temperature change [14] [°C] | Immobility time [15] [s] | Temperature change [16] [°C] | Activity [17] [%] | Immobility time [18] [s] | Temperature change [20] [°C] | Immobility time [21] [s] | Activity [22] [%] | Activity [23] [%] | also measured |
| --- | --- | --- | --- | --- | --- | --- | --- | --- | --- | --- | --- | --- | --- | --- | --- | --- | --- | --- | --- |
| 60 | 95 | – | COc1ccccc1N1CCN(CC/C(=N\O)c2csc3ccccc23)CC1 | -2.99 | 0 | <102 | -2.16 | 50 | -1.31 | -2.77 | 188.1 | -2.18 | 22 | 181.1 | -1.7 | – | – | – | Immobility time [8]: 150.1 s |
| 16 | 112 | – | COc1ccccc1N1CCN(CCC(=O)c2ccsc2)CC1 | -2.18 | – | <44.9 | -2.52 | – | -1.88 | -2.76 | 170.1 | -2.04 | – | 169.5 | -1.48 | <118.8 | 83 | 34 | Activity [24]: 0% |

Reference: ChEMBL document CHEMBL1134339, “New 1-aryl-3-(4-arylpiperazin-1-yl)propane derivatives, with dual action at 5-HT1A serotonin receptors and serotonin transporter, as a new class of antidepressants” (J Med Chem, 2001)
